Tests used:
[1] = tested on: Puccinia recondita f. Sp. Tritici; assay: Fungicidal activity against Puccinia recondita f. sp. tritici / wheat / leaf disc preventative (brown rust); format: in vivo; conditions: foliar, 200 ppm in the applied formulation, wheat leaf segments, preventative, compared to untreated control leaf disks, read-out: disease control
Procedure, shortened: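 Preventative leaf-segment test, wheat cv. Kanzler on water agar. Spray compound at 200 ppm, inoculate with spores 1 day later; 19° C., 75% rh, 12/12 h light. Read-out: % disease control vs untreated, 7 to 9 days after application.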

[2] = tested on: Puccinia recondita f. Sp. Tritici; assay: Fungicidal activity against Puccinia recondita f. sp. tritici / wheat / leaf disc curative (brown rust); format: in vivo; conditions: foliar, 24 h, 200 ppm in the applied formulation, wheat leaf segments, curative (applied 1 day after inoculation), compared to untreated control leaf disks, read-out: disease control
Procedure, shortened: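 Curative leaf-segment test: compound diluted in water applied 1 day after spore inoculation of cv. Kanzler wheat segments on agar. Conditions 19° C, 75% RH, 12 h/12 h light cycle. Read-out: % disease control relative to untreated check, 6 to 8 days after application.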

[3] = tested on: Phakopsora Pachyrhizi; assay: Fungicidal activity against Phakopsora pachyrhizi / soybean / leaf disc preventative (Asian soybean rust); format: in vivo; conditions: foliar, 200 ppm in the applied formulation, soybean leaf disks, compared to untreated control leaf disks, read-out: disease control
Procedure, shortened: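 Preventative soybean leaf-disc test: discs on water agar sprayed with diluted formulated compound, inoculated one day later with spores on the lower surface. Held 24–36 h dark at 20°C, 75% rh, then 12 h light/day; percent disease control versus untreated discs scored 12–14 days after application.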

[4] = tested on: Glomerella lagenarium (Colletotrichum lagenarium); assay: Fungicidal activity against Glomerella lagenarium (Colletotrichum lagenarium) liquid culture / cucumber / preventative (anthracnose); format: cell-based; conditions: Colletotrichum orbiculare; 20 ppm in the applied formulation; liquid culture (PDB), growth inhibition measured photometrically after 3 to 4 days; compared to untreated control; read-out: disease control
Procedure, shortened: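 Photometric read-out of fungal growth after 2–7 days, expressed as percent antifungal activity versus untreated check. Cryo-stored conidia in PDB; compound at 20 ppm; dark, 24 °C, 96% RH.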

CCC(=O)N(Cc1ccc(-c2noc(C(F)(F)F)n2)cc1)C(C)CC (stereo not shown) [Compound 1.389, N-sec-butyl-N-[[4-[5-(trifiuoromethyl)-1,2,4-oxadiazol-3-yl]phenyl]methyl]-propanamide]
≥ 80%: pest or weed control at 200 ppm [1] | pest or weed control at 200 ppm [2] | pest or weed control at 200 ppm [3] | inhibition of growth at 20 ppm [4]

C#CCN(Cc1ccc(-c2noc(C(F)(F)F)n2)cc1)C(=O)C1(C)CC1 [Compound 1.183, 1-methyl-N-prop-2-ynyl-N-[[4-[5-(trifluoromethyl)-1,2,4-oxadiazol-3-yl]phenyl]methyl]-cyclopropane-carboxamide]
≥ 80%: pest or weed control at 200 ppm [1] | pest or weed control at 200 ppm [2] | pest or weed control at 200 ppm [3] | inhibition of growth at 20 ppm [4]

O=C(C1CCCO1)N(Cc1ccc(-c2noc(C(F)(F)F)n2)cc1)CC1CC1 (stereo not shown) [Compound 1.242, N-(cyclopropylmethyl)-N-[[4-[5-(trifluoromethyl)-1,2,4-oxadiazol-3-yl]phenyl]methyl]-tetrahydrofuran-2-carboxamide]
≥ 80%: pest or weed control at 200 ppm [1] | pest or weed control at 200 ppm [2] | pest or weed control at 200 ppm [3] | inhibition of growth at 20 ppm [4]

CON(C)C(=O)N(Cc1ccc(-c2noc(C(F)(F)F)n2)cc1)CC(F)(F)F [Compound 3.25, 1-methoxy-1-methyl-3-(2,2,2-trifluoroethyl)-3-[[4-[5-(trifluoromethyl)-1,2,4-oxadiazol-3-yl]phenyl]methyl]urea]
≥ 80%: pest or weed control at 200 ppm [1] | pest or weed control at 200 ppm [2] | pest or weed control at 200 ppm [3] | inhibition of growth at 20 ppm [4]

CON(Cc1ccc(-c2noc(C(F)(F)F)n2)cc1)C(=O)C(C)CC(C)=O (stereo not shown) [Compound 1.22, N-methoxy-2-methyl-4-oxo-N-[[4-[5-(trifluoromethyl)-1,2,4-oxadiazol-3-yl]phenyl]methyl]-pentanamide]
≥ 80%: pest or weed control at 200 ppm [1] | pest or weed control at 200 ppm [2] | pest or weed control at 200 ppm [3] | inhibition of growth at 20 ppm [4]

CON(Cc1ccc(-c2noc(C(F)(F)F)n2)cc1)C(=O)CC1CCCC1 [Compound 1.8, 2-cyclopentyl-N-methoxy-N-[[4-[5-(trifluoromethyl)-1,2,4-oxadiazol-3-yl]phenyl]methyl]-acetamide]
≥ 80%: pest or weed control at 200 ppm [1] | pest or weed control at 200 ppm [2] | pest or weed control at 200 ppm [3] | inhibition of growth at 20 ppm [4]

CC1(C(=O)N(Cc2ccc(-c3noc(C(F)(F)F)n3)cc2)CC2CC2)CC1 [Compound 1.226, N-(cyclopropylmethyl)-1-methyl-N-[[4-[5-(trifluoromethyl)-1,2,4-oxadiazol-3-yl]phenyl]methyl]-cyctopropane-carboxamide]
≥ 80%: pest or weed control at 200 ppm [1] | pest or weed control at 200 ppm [2] | pest or weed control at 200 ppm [3] | inhibition of growth at 20 ppm [4]

CC1(C)CC1C(=O)N(Cc1ccc(-c2noc(C(F)(F)F)n2)cc1)C1CC1 (stereo not shown) [Compound 1.124, N-cyclopropyl-2,2-dimethyl-N-[[4-[5-(trifluoromethyl)-1,2,4-oxadiazol-3-yl]phenyl]methyl]-cyclopropane-carboxamide]
≥ 80%: pest or weed control at 200 ppm [1] | pest or weed control at 200 ppm [2] | pest or weed control at 200 ppm [3] | inhibition of growth at 20 ppm [4]

O=C(c1ccccc1Cl)N(Cc1ccc(-c2noc(C(F)(F)F)n2)cc1)C1COC1 [Compound 1.740, 2-chloro-N-(oxetan-3-yl)-N-[[4-[5-(trifluoromethyl)-1,2,4-oxadiazol-3-yl]phenyl]methyl]-benzamide]
≥ 80%: pest or weed control at 200 ppm [1] | pest or weed control at 200 ppm [2] | pest or weed control at 200 ppm [3] | inhibition of growth at 20 ppm [4]

COCCCC(=O)N(Cc1ccc(-c2noc(C(F)(F)F)n2)cc1)C1CC1 [Compound 1.136, N-cyclopropyl-4-methoxy-N-[[4-[5-(trifluoromethyl)-1,2,4-oxadiazol-3-yl]phenyl]methyl]-butanamide]
≥ 80%: pest or weed control at 200 ppm [1] | pest or weed control at 200 ppm [2] | pest or weed control at 200 ppm [3] | inhibition of growth at 20 ppm [4]
